These results are taken from patent US20260250318A1, “COMPOSITIONS AND METHODS FOR CROSSING THE BLOOD BRAIN BARRIER” (VOYAGER THERAPEUTICS, INC., priority 2022, published 2026).

The test system of the first test is brain. As to the kind of experiment: Matured TTM-001 and TTM-002 variants, NGS enrichment in mouse brain. To be noted: NGS fold-enrichment, brain of mice, relative to AAV9 control. The test is classed as in vivo, mice.
Take KTINGSGSPHSKAQAIKT: the “Fold Enrichment relative to AAV9, Brain (Mouse)” value came to 73.560 fold.
Regarding KTENISGSPHSKAQNQQT, the “Fold Enrichment relative to AAV9, Brain (Mouse)” value came out at 83.118 fold.
For KTNNGSGSPHSKAQNQQY, the “Fold Enrichment relative to AAV9, Brain (Mouse)” value was 82.656 fold.
In the case of KTESHSGSPHSKAQNQQT, the “Fold Enrichment relative to AAV9, Brain (Mouse)” value came to 52.506 fold.
Still for that read-out and setting: next, KTVNGSGSPHSKAQNQLI: 71.156 fold; KTVNGGGSPHSKAQSQQT: 160.711 fold; KTINGTGSPHSKAQNQQM: 62.376 fold.

The test is the same for the next values; noted with them: NGS fold-enrichment, mouse brain, relative to AAV9 control.
On to KTENGSASPHSKALNQQT (KTFNGSASPHSKALNQQT), for which the “Fold Enrichment relative to AAV9, Brain (Mouse)” value was found to be 31.855 fold.
As for KTENISGSPHSKAQNQQT, the “Fold Enrichment relative to AAV9, Brain (Mouse)” value is listed as 83.118 fold.
Consider KTVNGSGSPHSKAQNQLI, for which the “Fold Enrichment relative to AAV9, Brain (Mouse)” value amounted to 71.156 fold.

Another test concerns brains, heart, liver, muscle, and DRG of the NHPs. As to the kind of experiment: Maturation of TTM-001 and TTM-002 capsids, NGS enrichment in NHP tissues. The test is classed as in vivo. The following applies: NGS fold-enrichment of RNA, NHP brain, relative to AAV9 control. The essentials: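 Variants carry mutations within and flanking the loop IV peptide insert: positions 450–466 were triplet-randomized, while positions 449–466 received low-frequency point mutations. The combined pool went into two NHPs, and each peptide was scored by NGS enrichment ratio against AAV9.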
On to KTENGSASPHSKALNQQT (KTFNGSASPHSKALNQQT), for which the “Fold Enrichment relative to AAV9, Brain (NHP)” value was 84.258 fold.
Still for that read-out and setting: the value for KTENISGSPHSKAQNQQT was 76.072 fold; that for KTVNGSGSPHSKAQNQLI was 80.509 fold.

Staying with this test, now noted: NGS fold-enrichment, DRG of NHPs, relative to AAV9 control.
Take KTINGSGSPHSKAQAIKT: the “Fold Enrichment relative to AAV9, DRG (NHP)” value was 0.255 fold.
The same measure, in the same setting: the value for KTENISGSPHSKAQNQQT was 0.000 fold.
Same read-out and setting: next, KTNNGSGSPHSKAQNQQY: 0.000 fold; KTESHSGSPHSKAQNQQT: 0.000 fold; KTVNGSGSPHSKAQNQLI: 0.000 fold.
Same read-out and setting: the value for KTVNGGGSPHSKAQSQQT was 0.000 fold; that for KTINGTGSPHSKAQNQQM was 0.000 fold.

The test is the same for the next values; noted with them: NGS fold-enrichment, NHP DRG, relative to AAV9 control.
KTENGSASPHSKALNQQT (KTFNGSASPHSKALNQQT): the “Fold Enrichment relative to AAV9, DRG (NHP)” value is 0.000 fold.
On to KTENISGSPHSKAQNQQT, for which the “Fold Enrichment relative to AAV9, DRG (NHP)” value amounted to 0.000 fold.
On to KTVNGSGSPHSKAQNQLI, for which the “Fold Enrichment relative to AAV9, DRG (NHP)” value is recorded as 0.000 fold.

Still in this test, the particulars now being: NGS fold-enrichment, NHP heart, relative to AAV9 control.
Consider KTENGSASPHSKALNQQT (KTFNGSASPHSKALNQQT), for which the “Fold Enrichment relative to AAV9, Heart (NHP)” value is given as 0.122 fold.
Take KTENISGSPHSKAQNQQT: the “Fold Enrichment relative to AAV9, Heart (NHP)” value came out at 0.000 fold.
KTVNGSGSPHSKAQNQLI: the “Fold Enrichment relative to AAV9, Heart (NHP)” value was determined as 0.000 fold.

The test is the same for the next values; noted with them: NGS fold-enrichment, NHP liver DNA, relative to AAV9 control.
As to KTENGSASPHSKALNQQT (KTFNGSASPHSKALNQQT), the “Fold Enrichment relative to AAV9, Liver DNA (NHP)” value is given as 0.037 fold.
Still for that read-out and setting: next, KTENISGSPHSKAQNQQT: 0.132 fold; KTVNGSGSPHSKAQNQLI: 0.166 fold.

The same test, now with this note: NGS fold-enrichment, NHP liver RNA, relative to AAV9 control.
For KTENGSASPHSKALNQQT (KTFNGSASPHSKALNQQT), the “Fold Enrichment relative to AAV9, Liver RNA (NHP)” value is given as 0.104 fold.
Still for that read-out and setting: next, KTENISGSPHSKAQNQQT: 0.115 fold.
On the same count and under the same terms, the value for KTVNGSGSPHSKAQNQLI was 0.000 fold.

The test is the same for the next values; noted with them: NGS fold-enrichment, NHP muscle, relative to AAV9 control.
In the case of KTENGSASPHSKALNQQT (KTFNGSASPHSKALNQQT), the “Fold Enrichment relative to AAV9, Muscle (NHP)” value is 0.000 fold.
Still for that read-out and setting: the value for KTENISGSPHSKAQNQQT was 0.000 fold; that for KTVNGSGSPHSKAQNQLI was 0.000 fold.

The same test, now with this note: NGS fold-enrichment, RNA, brain of NHPs, relative to AAV9 control.
For KTINGSGSPHSKAQAIKT, the “Fold Enrichment relative to AAV9, Brain (NHP)” value came out at 74.261 fold.
The same measure, in the same setting: the value for KTENISGSPHSKAQNQQT was 76.072 fold.
Same read-out and setting: the value for KTNNGSGSPHSKAQNQQY was 68.530 fold; that for KTESHSGSPHSKAQNQQT was 61.947 fold.
On the same count and under the same terms, next, KTVNGSGSPHSKAQNQLI: 80.509 fold; KTVNGGGSPHSKAQSQQT: 67.634 fold.
In the case of KTINGTGSPHSKAQNQQM, the “Fold Enrichment relative to AAV9, Brain (NHP)” value amounted to 62.151 fold.

Still in this test, the particulars now being: NGS fold-enrichment, heart of NHPs, relative to AAV9 control.
On to KTINGSGSPHSKAQAIKT, for which the “Fold Enrichment relative to AAV9, Heart (NHP)” value was determined as 0.000 fold.
Same read-out and setting: the value for KTENISGSPHSKAQNQQT was 0.000 fold; that for KTNNGSGSPHSKAQNQQY was 0.040 fold; that for KTESHSGSPHSKAQNQQT was 0.000 fold.
Regarding KTVNGSGSPHSKAQNQLI, the “Fold Enrichment relative to AAV9, Heart (NHP)” value came out at 0.000 fold.
Regarding KTVNGGGSPHSKAQSQQT, the “Fold Enrichment relative to AAV9, Heart (NHP)” value was determined as 0.055 fold.
Same read-out and setting: the value for KTINGTGSPHSKAQNQQM was 0.000 fold.

The test is the same for the next values; noted with them: NGS fold-enrichment, liver DNA of NHPs, relative to AAV9 control.
Turning to KTINGSGSPHSKAQAIKT, the “Fold Enrichment relative to AAV9, Liver DNA (NHP)” value came to 0.132 fold.
Same read-out and setting: next, KTENISGSPHSKAQNQQT: 0.132 fold.
Same read-out and setting: the value for KTNNGSGSPHSKAQNQQY was 0.059 fold.
In the case of KTESHSGSPHSKAQNQQT, the “Fold Enrichment relative to AAV9, Liver DNA (NHP)” value is 0.106 fold.
Same read-out and setting: next, KTVNGSGSPHSKAQNQLI: 0.166 fold; KTVNGGGSPHSKAQSQQT: 0.210 fold; KTINGTGSPHSKAQNQQM: 0.000 fold.

Staying with this test, now noted: NGS fold-enrichment, liver RNA of NHPs, relative to AAV9 control.
As to KTINGSGSPHSKAQAIKT, the “Fold Enrichment relative to AAV9, Liver RNA (NHP)” value came out at 0.186 fold.
As for KTENISGSPHSKAQNQQT, the “Fold Enrichment relative to AAV9, Liver RNA (NHP)” value is reported as 0.115 fold.
In the case of KTNNGSGSPHSKAQNQQY, the “Fold Enrichment relative to AAV9, Liver RNA (NHP)” value is listed as 0.000 fold.
Still for that read-out and setting: next, KTESHSGSPHSKAQNQQT: 1.480 fold.
Consider KTVNGSGSPHSKAQNQLI, for which the “Fold Enrichment relative to AAV9, Liver RNA (NHP)” value is listed as 0.000 fold.
Still for that read-out and setting: the value for KTVNGGGSPHSKAQSQQT was 0.000 fold; that for KTINGTGSPHSKAQNQQM was 0.000 fold.

The test is the same for the next values; noted with them: NGS fold-enrichment, muscle of NHPs, relative to AAV9 control.
As for KTINGSGSPHSKAQAIKT, the “Fold Enrichment relative to AAV9, Muscle (NHP)” value turned out to be 0.000 fold.
The same measure, in the same setting: next, KTENISGSPHSKAQNQQT: 0.000 fold; KTNNGSGSPHSKAQNQQY: 0.000 fold; KTESHSGSPHSKAQNQQT: 0.000 fold.
On to KTVNGSGSPHSKAQNQLI, for which the “Fold Enrichment relative to AAV9, Muscle (NHP)” value is given as 0.000 fold.
Take KTVNGGGSPHSKAQSQQT: the “Fold Enrichment relative to AAV9, Muscle (NHP)” value is on record as 0.000 fold.
The same measure, in the same setting: the value for KTINGTGSPHSKAQNQQM was 0.000 fold.
